pIC50: −log10 of the molar value.
Biological target: T1, PI3K alpha (Homo sapiens, UniProt P42336)
T1 construct: purchased Millipore Upstate
Test: P110 Alpha TR-FRET Assay (PI3K alpha kinase assay, HTRF Transcreener ADP Assay)
Assay type: biochemical
Details: PI3K (WT)
Protocol: PI3K alpha kinase assay may be done using HTRF Transcreener ADP Assay (Cisbio).
Composition of the reaction buffer was as follows 50 mM HEPES, pH 7.5, 5 mM MgCl2, 1 mM DTT, 30 μM Na3VO4. PI3 Kinase was procured from Millipore Upstate. […] ATP was used at final concentration of 10 μM. Corning 384 well white plates were used for the assay.
2 μl of diluted enzyme (50 ng), 3 μl of diluted compound and 5 μl of buffer were added, mixed then incubated for 20 minutes with shaking at 400 rpm. 3 μl of substrate (10 μM of ATP and 5 μM PIP2) were added to initiate the reaction. The samples were incubated for 20 min. At the end of the reaction time 10 μl of the Detection mix (5 μl of ADP-D2 and 5 μl of Anti-ADP-Cryptate) was added and the contents were incubated for 1 h. The reaction plate was directly read in an Envision Multilabel Plate Reader.

T1 sequence (P42336 whole entry): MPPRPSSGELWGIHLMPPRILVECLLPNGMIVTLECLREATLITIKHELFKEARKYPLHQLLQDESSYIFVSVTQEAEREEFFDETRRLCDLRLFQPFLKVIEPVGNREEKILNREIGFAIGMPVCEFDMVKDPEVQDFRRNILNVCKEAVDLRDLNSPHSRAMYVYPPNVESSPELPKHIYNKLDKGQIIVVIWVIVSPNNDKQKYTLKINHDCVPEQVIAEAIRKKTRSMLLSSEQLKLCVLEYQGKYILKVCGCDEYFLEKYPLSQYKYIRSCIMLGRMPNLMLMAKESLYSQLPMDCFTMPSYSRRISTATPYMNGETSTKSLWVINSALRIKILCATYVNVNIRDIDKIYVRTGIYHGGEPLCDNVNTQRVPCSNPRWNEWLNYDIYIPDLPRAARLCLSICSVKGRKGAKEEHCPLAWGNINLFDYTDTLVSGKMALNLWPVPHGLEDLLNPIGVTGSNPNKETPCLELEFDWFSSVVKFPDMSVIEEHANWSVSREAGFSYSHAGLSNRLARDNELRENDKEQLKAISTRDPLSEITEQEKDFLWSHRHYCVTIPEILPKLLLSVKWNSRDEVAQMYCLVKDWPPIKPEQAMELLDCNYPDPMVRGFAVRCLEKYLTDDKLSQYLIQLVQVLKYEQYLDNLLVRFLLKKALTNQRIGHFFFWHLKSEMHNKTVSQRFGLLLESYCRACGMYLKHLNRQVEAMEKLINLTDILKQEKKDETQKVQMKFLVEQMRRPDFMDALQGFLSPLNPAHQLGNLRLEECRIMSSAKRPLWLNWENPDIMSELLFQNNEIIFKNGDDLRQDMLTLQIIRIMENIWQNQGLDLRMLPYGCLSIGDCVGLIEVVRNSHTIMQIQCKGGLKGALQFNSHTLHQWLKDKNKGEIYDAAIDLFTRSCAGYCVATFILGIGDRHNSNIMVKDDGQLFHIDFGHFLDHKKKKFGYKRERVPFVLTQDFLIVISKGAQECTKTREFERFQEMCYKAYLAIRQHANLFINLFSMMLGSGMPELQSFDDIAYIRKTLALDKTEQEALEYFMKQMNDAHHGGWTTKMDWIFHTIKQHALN
T1 sequence (P27986 whole entry partner): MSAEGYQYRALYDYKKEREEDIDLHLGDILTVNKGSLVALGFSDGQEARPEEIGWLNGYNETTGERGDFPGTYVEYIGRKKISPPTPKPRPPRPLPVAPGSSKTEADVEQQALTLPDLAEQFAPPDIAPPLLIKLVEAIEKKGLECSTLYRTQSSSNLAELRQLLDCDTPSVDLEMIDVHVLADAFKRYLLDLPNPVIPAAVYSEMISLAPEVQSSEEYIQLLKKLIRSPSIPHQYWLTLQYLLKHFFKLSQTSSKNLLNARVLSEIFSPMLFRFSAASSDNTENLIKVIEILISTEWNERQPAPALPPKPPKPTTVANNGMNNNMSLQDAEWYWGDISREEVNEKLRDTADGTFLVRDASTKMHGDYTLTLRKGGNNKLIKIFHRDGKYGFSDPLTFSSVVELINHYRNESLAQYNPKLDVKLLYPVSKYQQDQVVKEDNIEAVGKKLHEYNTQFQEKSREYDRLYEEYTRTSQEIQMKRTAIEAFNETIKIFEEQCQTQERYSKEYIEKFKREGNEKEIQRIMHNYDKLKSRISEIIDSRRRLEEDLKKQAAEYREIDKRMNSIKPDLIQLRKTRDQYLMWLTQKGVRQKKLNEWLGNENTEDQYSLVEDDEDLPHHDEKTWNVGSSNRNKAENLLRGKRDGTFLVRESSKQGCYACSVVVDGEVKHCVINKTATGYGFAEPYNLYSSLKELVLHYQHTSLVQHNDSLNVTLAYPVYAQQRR

Compound	pIC50
CS(=O)(=O)N1CCN(c2nc(-c3cnc(N)nc3)nc(N3CCOCC3)n2)CC1 [Compound 1062, 5-13-[4-3-(4-22-methanesulfonylpiperazin-1-yl)-6-5-(morpholin-4-yl)-1,3,5-triazin-2-yl]pyrimidin-2-amine]	> 5.30
CC(C)C(=O)Nc1ccc(Oc2nc(-c3cccc4[nH]ncc34)nc(N3CCOCC3)n2)cc1 [Compound 1107, N-(4-14-{[4-1-(1H-indazol-4-yl)-6-5-(morpholin-4-yl)-1,3,5-triazin-2-yl]oxy}phenyl)-2-30-methylpropanamide]	> 5.30
CN(C)C(=O)[C@H]1CC[C@H](Oc2nc(-c3ccc(N)nc3)nc(N3CCOCC3)n2)CC1 [Compound 1035, (1r,4r)-4-9-{[4-1-(6-12-aminopyridin-3-yl)-6-5-(morpholin-4-yl)-1,3,5-triazin-2-yl]oxy}-N,N-dimethylcyclohexane-1-carboxamide]	> 5.30
CN(C)C(=O)c1ccc(Oc2nc(-c3ccc(NN)nc3)nc(N3CCOCC3)n2)cc1 [Compound 1019, 4-14-{[4-1-(6-26-hydrazinylpyridin-3-yl)-6-5-(morpholin-4-yl)-1,3,5-triazin-2-yl]oxy}-N,N-dimethylbenzamide]	> 5.30
CN(C)C(=O)c1cccc(Nc2nc(-c3cccc4[nH]ncc34)nc(N3CC(C(N)=O)C3)n2)c1 [Compound 1056]	< 5.30
NC(=O)CNc1nc(-c2cccc(C(N)=O)c2)nc(N2CCOCC2)n1 [Compound 1135, 3-6-{4-1-[(carbamoylmethyl)amino]-6-2-(morpholin-4-yl)-1,3,5-triazin-2-yl}benzamide]	< 5.30
CN(C)C(=O)c1ccc(Nc2nc(-c3ccc(N)nc3)nc(N3CCOCC3)n2)cc1 [Compound 1065, 4-((4-(6-aminopyridin-3-yl)-6-morpholino-1,3,5-triazin-2-yl)amino)-N,N-dimethylbenzamide]	> 5.30
CN(C)C(=O)c1ccc(Oc2nc(-c3cnc(N)nc3)nc(N3CCOCC3)n2)cc1 [Compound 1011, 4-14-{[4-1-(2-27-aminopyrimidin-5-yl)-6-5-(morpholin-4-yl)-1,3,5-triazin-2-yl]oxy}-N,N-dimethylbenzamide]	> 5.30
CN(C)C(=O)N1CCC(COc2nc(-c3cccc4[nH]ncc34)nc(N3CCOCC3)n2)C1 (centres unmarked) [Compound 1109, 3-22-({[4-1-(1H-indazol-4-yl)-6-5-(morpholin-4-yl)-1,3,5-triazin-2-yl]oxy}methyl)-N,N-dimethylpyrrolidine-1-carboxamide]	> 5.30
CN(C)C(=O)c1ccc(Oc2nc(-c3cccc4[nH]ncc34)nc(N3CCOc4ccccc43)n2)cc1 [Compound 1043, 4-9-{[4-5-(3,4-dihydro-2H-1,4-benzoxazin-4-yl)-6-1-(1H-indazol-4-yl)-1,3,5-triazin-2-yl]oxy}-N,N-dimethylbenzamide]	< 5.30
CN(C)C(=O)CCNc1nc(-c2ccc(N)nc2)nc(N2CCOCC2)n1 [Compound 1104, 3-((4-(6-aminopyridin-3-yl)-6-morpholino-1,3,5-triazin-2-yl)amino)-N,N-dimethylpropanamide]	> 5.30
CN(C)C(=O)c1ccc(Oc2nc(-c3cnc(N)s3)nc(N3CCCOCC3)n2)cc1 [Compound 1002, 4-9-{[4-1-(2-17-amino-1,3-thiazol-5-yl)-6-5-(1,4-oxazepan-4-yl)-1,3,5-triazin-2-yl]oxy}-N,N-dimethylbenzamide]	> 5.30
CN(C)C(=O)Cc1ccc(Oc2nc(-c3cccc4[nH]ncc34)nc(N3CCOCC3)n2)cc1 [Compound 1085, 2-27-(4-14-{[4-1-(1H-indazol-4-yl)-6-5-(morpholin-4-yl)-1,3,5-triazin-2-yl]oxy}phenyl)-N,N-dimethylacetamide]	> 5.30
CN(C)C(=O)c1ccc(Oc2nc(-c3cnc(N)s3)nc(N3CCOCC3)n2)cc1 [Compound 1004, 4-14-{[4-1-(2-27-amino-1,3-thiazol-5-yl)-6-5-(morpholin-4-yl)-1,3,5-triazin-2-yl]oxy}-N,N-dimethylbenzamide]	> 5.30
CN(C)C(=O)CNc1nc(-c2cccc3c2CCC3O)nc(N2CCOCC2)n1 (centres unmarked) [Compound 1070, 2-((4-(1-hydroxy-2,3-dihydro-1H-inden-4-yl)-6-morpholino-1,3,5-triazin-2-yl)amino)-N,N-dimethylacetamide]	< 5.30
CN(C)C(=O)c1ccc(Oc2nc(-c3cccc4[nH]ncc34)nc(N3C4CCC3COC4)n2)cc1 [Compound 1068, 4-9-{[4-1-(1H-indazol-4-yl)-6-5-{3-oxa-8-azabicyclo[3.2.1]octan-8-yl}-1,3,5-triazin-2-yl]oxy}-N,N-dimethylbenzamide]	< 5.30
CN(C)C(=O)N1CCCC(Oc2nc(-c3cccc4[nH]ncc34)nc(N3CCOCC3)n2)CC1 (centres unmarked) [Compound 1087, 4-14-{[4-1-(1H-indazol-4-yl)-6-5-(morpholin-4-yl)-1,3,5-triazin-2-yl]oxy}-N,N-dimethylazepane-1-carboxamide]	> 5.30

Further lines, results first:

pIC50	Compound
> 5.30	c1ccc(Nc2nc(-c3cccc4[nH]ncc34)nc(N3CCOCC3)n2)cc1 [Compound 1219, 4-(1H-indazol-4-yl)-6-morpholino-N-phenyl-1,3,5-triazin-2-amine]
< 5.30	O=C(O)CNc1nc(-c2cccc([N+](=O)[O-])c2)nc(N2CCOCC2)n1 [Compound 1169, 2-((4-morpholino-6-(3-nitrophenyl)-1,3,5-triazin-2-yl)amino)acetic acid]
> 5.30	O=C(c1cccc(Nc2nc(-c3cccc4[nH]ncc34)nc(N3CCOCC3)n2)c1)N1CCNCC1 [Compound 1171, (3-((4-(1H-indazol-4-yl)-6-morpholino-1,3,5-triazin-2-yl)amino)phenyl)(piperazin-1-yl)methanone]
< 5.30	O=C(O)CNc1nc(-c2ccc(O)nc2)nc(N2CCOCC2)n1 [Compound 1176, 2-((4-(6-hydroxypyridin-3-yl)-6-morpholino-1,3,5-triazin-2-yl)amino)acetic acid]
> 5.30	CN(CC(=O)O)c1nc(-c2cccc(O)c2)nc(N2CCOCC2)n1 [Compound 1192, 2-((4-(3-hydroxyphenyl)-6-morpholino-1,3,5-triazin-2-yl)(methyl)amino)acetic acid]
> 5.30	O=C1CN(C(=O)c2cccc(Nc3nc(-c4cccc5[nH]ncc45)nc(N4CCOCC4)n3)c2)CCN1 [Compound 1163, 4-(3-((4-(1H-indazol-4-yl)-6-morpholino-1,3,5-triazin-2-yl)amino)benzoyl)piperazin-2-one]
> 5.30	CN(c1cccc(C(N)=O)c1)c1nc(-c2cccc3[nH]ncc23)nc(N2CCOCC2)n1 [Compound 1200, 3-((4-(1H-indazol-4-yl)-6-morpholino-1,3,5-triazin-2-yl)(methyl)amino)benzamide]
> 5.30	CC(C)C(Nc1nc(-c2cccc(O)c2)nc(N2CCOCC2)n1)C(=O)O (centres unmarked) [Compound 1175, 2-((4-(3-hydroxyphenyl)-6-morpholino-1,3,5-triazin-2-yl)amino)-3-methylbutanoic acid]
> 5.30	O=C1CN(c2nc(-c3cccc4[nH]ncc34)nc(N3CCOCC3)n2)CCN1 [Compound 1230, 4-7-[4-1-(1H-indazol-4-yl)-6-5-(morpholin-4-yl)-1,3,5-triazin-2-yl]piperazin-2-one]
> 5.30	CN(C)C(=O)C(Cc1ccccc1)Nc1nc(-c2cccc3[nH]ncc23)nc(N2CCOCC2)n1 (centres unmarked) [Compound 1209, 2-((4-(1H-indazol-4-yl)-6-morpholino-1,3,5-triazin-2-yl)amino)-N,N-dimethyl-3-phenylpropanamide]
> 5.30	NC(=O)Cc1ccccc1Nc1nc(-c2cccc3[nH]ncc23)nc(N2CCOCC2)n1 [Compound 1194, 2-(2-((4-(1H-indazol-4-yl)-6-morpholino-1,3,5-triazin-2-yl)amino)phenyl)acetamide]
> 5.30	CNC(=O)c1ccc(C)c(Nc2nc(-c3cccc4[nH]ncc34)nc(N3CCOCC3)n2)c1 [Compound 1177, 3-((4-(1H-indazol-4-yl)-6-morpholino-1,3,5-triazin-2-yl)amino)-N,4-dimethylbenzamide]
> 5.30	NC1CCN(c2nc(-c3cccc4[nH]ncc34)nc(N3CCOCC3)n2)CC1 [Compound 1222, 1-8-[4-1-(1H-indazol-4-yl)-6-5-(morpholin-4-yl)-1,3,5-triazin-2-yl]piperidin-4-amine]
> 5.30	COC(=O)CNc1nc(-c2cccc(N)c2)nc(N2CCOCC2)n1 [Compound 1197, methyl 2-((4-(3-aminophenyl)-6-morpholino-1,3,5-triazin-2-yl)amino)acetate]
> 5.30	CSCCC(Nc1nc(-c2cccc(O)c2)nc(N2CCOCC2)n1)C(=O)O (centres unmarked) [Compound 1136, 2-((4-(3-hydroxyphenyl)-6-morpholino-1,3,5-triazin-2-yl)amino)-4-(methylthio)butanoic acid]
> 5.30	NC(=O)C1CN(C(=O)c2cccc(Nc3nc(-c4cccc5[nH]ncc45)nc(N4CCOCC4)n3)c2)C1 [Compound 1154, 1-(3-((4-(1H-indazol-4-yl)-6-morpholino-1,3,5-triazin-2-yl)amino)benzoyl)azetidine-3-carboxamide]
> 5.30	NC(=O)c1sccc1Nc1nc(-c2cccc3[nH]ncc23)nc(N2CCOCC2)n1 [Compound 1158, 3-((4-(1H-indazol-4-yl)-6-morpholino-1,3,5-triazin-2-yl)amino)thiophene-2-carboxamide]
> 5.30	NC(=O)c1cccn1-c1nc(-c2cccc3[nH]ncc23)nc(N2CCOCC2)n1 [Compound 1182, 1-8-[4-1-(1H-indazol-4-yl)-6-5-(morpholin-4-yl)-1,3,5-triazin-2-yl]-1H-pyrrole-2-carboxamide]
